Experimental data reported in patent publication US9475775B2, “Benzazepine dicarboxamide compounds” (Hoffmann-La Roche Inc., priority 2015, dated 2016).

Tests used:
[1] = target: human TLR7 (Homo sapiens (Human), UniProt Q9NYK1); assay: HEK-Blue human TLR7 cells, NF-κB SEAP reporter assay; format: cell-based; conditions: stimulation for 20 hours
Excerpt: (§1) For TLR8 and TLR7 activity testing, HEK-Blue human TLR8 or TLR7 cells (Invivogen, San Diego, Calif., USA) are used, respectively. These cells are designed for studying the stimulation of human TLR8 or TLR7 by monitoring the activation of NF-κB. A SEAP (secreted embryonic alkaline phosphatase) reporter gene is placed under the control of the IFN-b minimal promoter fused to five NF-κB and AP-1-binding sites. Therefore the reporter expression is regulated by the NF-κB promoter upon stimulation of human TLR8 or TLR7 for 20 hours. The cell culture supernatant SEAP reporter activity was determined using Quanti Blue kit (Invivogen, San Diego, Ca, USA) at a wavelength of 640 nm, a detection medium that turns purple/blue in the presence of alkaline phosphatase. EC50 values were determined using Activity Base analysis (ID Business Solution, Limited).

[2] = target: human TLR8 (Homo sapiens (Human), UniProt Q9NR97); assay: HEK-Blue human TLR8 cells, NF-κB SEAP reporter assay; format: cell-based; conditions: stimulation for 20 hours
Excerpt: as §1

Chain of human TLR7 (Q9NYK1 27-1049): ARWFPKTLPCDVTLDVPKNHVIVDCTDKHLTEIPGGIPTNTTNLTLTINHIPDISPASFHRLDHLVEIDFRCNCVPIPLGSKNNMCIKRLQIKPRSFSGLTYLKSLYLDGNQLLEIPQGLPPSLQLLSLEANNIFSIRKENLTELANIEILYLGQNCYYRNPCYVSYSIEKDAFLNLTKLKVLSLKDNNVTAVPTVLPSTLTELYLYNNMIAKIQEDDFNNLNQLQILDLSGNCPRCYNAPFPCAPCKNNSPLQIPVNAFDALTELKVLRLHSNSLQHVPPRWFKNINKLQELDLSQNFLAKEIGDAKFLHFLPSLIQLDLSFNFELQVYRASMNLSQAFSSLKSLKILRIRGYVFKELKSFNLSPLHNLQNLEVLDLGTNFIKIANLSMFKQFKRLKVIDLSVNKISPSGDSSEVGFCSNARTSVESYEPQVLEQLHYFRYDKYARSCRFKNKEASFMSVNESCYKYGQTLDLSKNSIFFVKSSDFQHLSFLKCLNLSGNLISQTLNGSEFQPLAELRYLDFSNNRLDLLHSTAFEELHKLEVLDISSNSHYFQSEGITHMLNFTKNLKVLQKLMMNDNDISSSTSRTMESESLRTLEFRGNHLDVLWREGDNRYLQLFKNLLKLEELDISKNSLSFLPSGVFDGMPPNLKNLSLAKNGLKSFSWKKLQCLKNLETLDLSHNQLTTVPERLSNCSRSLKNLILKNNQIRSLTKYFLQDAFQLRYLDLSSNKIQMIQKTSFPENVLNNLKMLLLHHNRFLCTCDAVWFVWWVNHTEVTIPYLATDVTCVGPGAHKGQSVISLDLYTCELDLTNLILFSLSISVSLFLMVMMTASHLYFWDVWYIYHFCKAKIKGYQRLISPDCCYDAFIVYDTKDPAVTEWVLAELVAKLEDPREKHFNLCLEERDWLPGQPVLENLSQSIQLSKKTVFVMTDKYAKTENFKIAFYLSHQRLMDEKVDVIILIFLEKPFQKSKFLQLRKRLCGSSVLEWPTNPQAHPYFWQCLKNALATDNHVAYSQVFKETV
Chain of human TLR8 (Q9NR97 27-1041): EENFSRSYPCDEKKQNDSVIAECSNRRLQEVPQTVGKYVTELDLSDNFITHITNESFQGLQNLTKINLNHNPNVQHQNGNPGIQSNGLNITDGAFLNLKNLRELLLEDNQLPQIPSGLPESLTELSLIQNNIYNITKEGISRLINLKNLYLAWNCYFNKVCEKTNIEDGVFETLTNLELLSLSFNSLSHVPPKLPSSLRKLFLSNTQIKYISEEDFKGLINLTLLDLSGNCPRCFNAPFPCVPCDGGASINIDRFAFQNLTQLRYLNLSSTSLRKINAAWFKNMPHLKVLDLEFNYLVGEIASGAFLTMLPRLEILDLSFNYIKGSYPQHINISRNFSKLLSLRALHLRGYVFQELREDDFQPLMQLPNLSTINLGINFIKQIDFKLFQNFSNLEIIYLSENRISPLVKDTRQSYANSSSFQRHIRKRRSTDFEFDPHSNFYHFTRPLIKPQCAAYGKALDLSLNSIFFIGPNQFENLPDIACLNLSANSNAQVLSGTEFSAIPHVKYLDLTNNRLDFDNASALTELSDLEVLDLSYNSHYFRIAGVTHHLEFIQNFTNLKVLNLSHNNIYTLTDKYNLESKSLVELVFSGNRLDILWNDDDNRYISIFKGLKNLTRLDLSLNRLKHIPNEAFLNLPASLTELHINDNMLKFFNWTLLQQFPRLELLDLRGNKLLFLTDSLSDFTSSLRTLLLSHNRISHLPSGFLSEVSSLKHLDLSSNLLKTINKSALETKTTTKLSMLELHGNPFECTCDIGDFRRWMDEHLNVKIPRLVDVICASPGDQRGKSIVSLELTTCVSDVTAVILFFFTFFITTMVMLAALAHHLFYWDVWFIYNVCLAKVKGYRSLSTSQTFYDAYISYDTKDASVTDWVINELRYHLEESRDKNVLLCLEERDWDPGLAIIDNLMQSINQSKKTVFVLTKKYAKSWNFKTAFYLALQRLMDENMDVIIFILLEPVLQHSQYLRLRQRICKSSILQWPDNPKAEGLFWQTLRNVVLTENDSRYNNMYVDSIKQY

Row | SMILES | EC50 [1] | EC50 [2]
1 | CCCN(CCC)C(=O)C1=Cc2ccc(C(=O)Nc3cccc(CN)c3)cc2N=C(N)C1 [Example 36, 2-Amino-N8-[3-(aminomethyl)phenyl]-N4,N4-dipropyl-3H-1-benzazepine-4,8-dicarboxamide] | > 100000 nM | 31 nM
2 | CCCN(CCC)C(=O)C1=Cc2ccc(C(=O)Nc3cncc(CCc4cccc(OC)c4)c3)cc2N=C(N)C1 [Example 73, 2-Amino-N8-[5-[2-(3-methoxyphenyl)ethyl]-3-pyridyl]-N4,N4-dipropyl-3H-1-benzazepine-4,8-dicarboxamide] | > 100000 nM | 10 nM
3 | CCCN(CCC)C(=O)C1=Cc2ccc(C(=O)Nc3cccnc3C)cc2N=C(N)C1 [Example 21, 2-Amino-N8-(2-methyl-3-pyridyl)-N4,N4-dipropyl-3H-1-benzazepine-4,8-dicarboxamide] | > 100000 nM | 21 nM
4 | CCCN(CCC)C(=O)C1=Cc2ccc(C(=O)Nc3cccc(COCCOCCN)c3)cc2N=C(N)C1 [Example 47, 2-Amino-N8-[3-[2-(2-aminoethoxy)ethoxymethyl]phenyl]-N4,N4-dipropyl-3H-1-benzazepine-4,8-dicarboxamide] | > 100000 nM | 6 nM
5 | CCCN(Cc1ccc(CN)cc1)C(=O)C1=Cc2ccc(C(=O)Nc3cccc(C)c3)cc2N=C(N)C1 [Example 60, 2-Amino-N4-[[4-(aminomethyl)phenyl]methyl]-N8-(m-tolyl)-N4-propyl-3H-1-benzazepine-4,8-dicarboxamide] | > 100000 nM | 27 nM
6 | CCCN(CCC)C(=O)C1=Cc2ccc(C(=O)Nc3cncc(CCN)c3)cc2N=C(N)C1 [Example 80, 2-Amino-N8-[5-(2-aminoethyl)-3-pyridyl]-N4,N4-dipropyl-3H-1-benzazepine-4,8-dicarboxamide] | > 100000 nM | 17 nM
7 | CCCN(CCC)C(=O)C1=Cc2ccc(C(=O)Nc3ccc(C)nc3)cc2N=C(N)C1 [Example 22, 2-Amino-N8-(6-methyl-3-pyridyl)-N4,N4-dipropyl-3H-1-benzazepine-4,8-dicarboxamide] | > 100000 nM | 3 nM
8 | CCCN(CCC)C(=O)C1=Cc2ccc(C(=O)Nc3ccc(CCCCN)nc3)cc2N=C(N)C1 [Example 77, 2-Amino-N8-[6-(4-aminobutyl)-3-pyridyl]-N4,N4-dipropyl-3H-1-benzazepine-4,8-dicarboxamide] | > 100000 nM | 8 nM
9 | CCCN(CCC)C(=O)C1=Cc2ccc(C(=O)Nc3cncc(/C=C/CN)c3)cc2N=C(N)C1 [Example 68, 2-Amino-N8-[5-[(E)-3-aminoprop-1-enyl]-3-pyridyl]-N4,N4-dipropyl-3H-1-benzazepine-4,8-dicarboxamide] | > 100000 nM | 8 nM
10 | CCCN(CCCO)C(=O)C1=Cc2ccc(C(=O)Nc3cccnc3)cc2N=C(N)C1 [Example 39, 2-Amino-N4-(3-hydroxypropyl)-N4-propyl-N8-(3-pyridyl)-3H-1-benzazepine-4,8-dicarboxamide] | > 100000 nM | 29 nM
11 | CCCN(CCCO)C(=O)C1=Cc2ccc(C(=O)Nc3cccc(C)c3)cc2N=C(N)C1 [Example 26, 2-Amino-N4-(3-hydroxypropyl)-N8-(m-tolyl)-N4-propyl-3H-1-benzazepine-4,8-dicarboxamide] | > 100000 nM | 2 nM
12 | CCCN(CCC)C(=O)C1=Cc2ccc(C(=O)Nc3ccc(CCN)cc3)cc2N=C(N)C1 [Example 25, 2-Amino-N8-[4-(2-aminoethyl)phenyl]-N4,N4-dipropyl-3H-1-benzazepine-4,8-dicarboxamide] | > 100000 nM | 18 nM
13 | CCCN(CCC)C(=O)C1=Cc2ccc(C(=O)Nc3ncco3)cc2N=C(N)C1 [Example 38, 2-Amino-N8-oxazol-2-yl-N4,N4-dipropyl-3H-1-benzazepine-4,8-dicarboxamide] | 45000 nM | 29 nM
14 | CCCN(CCC)C(=O)C1=Cc2ccc(C(=O)Nc3cncn3C)cc2N=C(N)C1 [Example 12, 2-Amino-N8-(3-methylimidazol-4-yl)-N4,N4-dipropyl-3H-1-benzazepine-4,8-dicarboxamide] | > 100000 nM | 4 nM
15 | CCCN(CCC)C(=O)C1=Cc2ccc(C(=O)Nc3cncc(CCc4ccc(CN)cc4)c3)cc2N=C(N)C1 [Example 71, 2-Amino-N8-[5-[2-[4-(aminomethyl)phenyl]ethyl]-3-pyridyl]-N4,N4-dipropyl-3H-1-benzazepine-4,8-dicarboxamide] | > 100000 nM | 29 nM
16 | CCCN(CCC)C(=O)C1=Cc2ccc(C(=O)Nc3cncc(C#CCN)c3)cc2N=C(N)C1 [Example 48, 2-Amino-N8-[5-(3-aminoprop-1-ynyl)-3-pyridyl]-N4,N4-dipropyl-3H-1-benzazepine-4,8-dicarboxamide] | > 100000 nM | 16 nM
17 | CCCCN(CCCC)C(=O)C1=Cc2ccc(C(=O)Nc3cccc(C)c3)cc2N=C(N)C1 [Example 42, 2-Amino-N4,N4-dibutyl-N8-(m-tolyl)-3H-1-benzazepine-4,8-dicarboxamide] | > 100000 nM | 17 nM

Row | SMILES | EC50 [1] | EC50 [2]
18 | CCCN(CCC)C(=O)C1=Cc2ccc(C(=O)Nc3ccc(F)cc3)cc2N=C(N)C1 [Example 13, 2-Amino-N8-(4-fluorophenyl)-N4,N4-dipropyl-3H-1-benzazepine-4,8-dicarboxamide] | > 100000 nM | 7 nM
19 | CCCN(CCC)C(=O)C1=Cc2ccc(C(=O)Nc3cncc(OCCN)c3)cc2N=C(N)C1 [Example 66, 2-Amino-N8-[5-(2-aminoethoxy)-3-pyridyl]-N4,N4-dipropyl-3H-1-benzazepine-4,8-dicarboxamide] | > 100000 nM | 31 nM
20 | CCCN(CCC)C(=O)C1=Cc2ccc(C(=O)Nc3cncc(C)c3)cc2N=C(N)C1 [Example 18, 2-Amino-N8-(5-methyl-3-pyridyl)-N4,N4-dipropyl-3H-1-benzazepine-4,8-dicarboxamide] | 34000 nM | 2 nM
21 | CCCN(CCC)C(=O)C1=Cc2ccc(C(=O)Nc3cccc(F)c3)cc2N=C(N)C1 [Example 19, 2-Amino-N8-(3-fluorophenyl)-N4,N4-dipropyl-3H-1-benzazepine-4,8-dicarboxamide] | > 100000 nM | 5 nM
22 | CCCN(CCC)C(=O)C1=Cc2ccc(C(=O)Nc3cncc(CCCN)c3)cc2N=C(N)C1 [Example 50, 2-Amino-N8-[5-(3-aminopropyl)-3-pyridyl]-N4,N4-dipropyl-3H-1-benzazepine-4,8-dicarboxamide] | > 100000 nM | 10 nM
23 | CCCN(CCC)C(=O)C1=Cc2ccc(C(=O)Nc3cncc(CO)c3)cc2N=C(N)C1 [Example 6, 2-Amino-N8-[5-(hydroxymethyl)-3-pyridyl]-N4,N4-dipropyl-3H-1-benzazepine-4,8-dicarboxamide] | > 100000 nM | 8 nM
24 | CCCN(CCCOCCCN)C(=O)C1=Cc2ccc(C(=O)Nc3cccc(C)c3)cc2N=C(N)C1 [Example 56, 2-Amino-N4-[3-(3-aminopropoxy)propyl]-N8-(m-tolyl)-N4-propyl-3H-1-benzazepine-4,8-dicarboxamide] | > 100000 nM | 10 nM
25 | CCCN(CCC)C(=O)C1=Cc2ccc(C(=O)Nc3cncc(OCCCCCN)c3)cc2N=C(N)C1 [Example 46, 2-Amino-N8-[5-(5-aminopentoxy)-3-pyridyl]-N4,N4-dipropyl-3H-1-benzazepine-4,8-dicarboxamide] | > 100000 nM | 10 nM
26 | CCCN(CCC)C(=O)C1=Cc2ccc(C(=O)Nc3cccc(CCCCCN)c3)cc2N=C(N)C1 [Example 57, 2-Amino-N8-[3-(5-aminopentyl)phenyl]-N4,N4-dipropyl-3H-1-benzazepine-4,8-dicarboxamide] | > 100000 nM | 25 nM
27 | CCCN(CCC)C(=O)C1=Cc2ccc(C(=O)Nc3nccs3)cc2N=C(N)C1 [Example 11, 2-Amino-N4,N4-dipropyl-N8-thiazol-2-yl-3H-1-benzazepine-4,8-dicarboxamide] | > 100000 nM | 29 nM
28 | CCCN(CCC)C(=O)C1=Cc2ccc(C(=O)Nc3cncc(CCc4ccc(OC)cc4)c3)cc2N=C(N)C1 [Example 70, 2-Amino-N8-[5-[2-(4-methoxyphenyl)ethyl]-3-pyridyl]-N4,N4-dipropyl-3H-1-benzazepine-4,8-dicarboxamide] | > 100000 nM | 12 nM
29 | CCCN(CCC)C(=O)C1=Cc2ccc(C(=O)Nc3cncc(C(=O)N4CCCC4)c3)cc2N=C(N)C1 [Example 16, 2-Amino-N4,N4-dipropyl-N8-[5-(pyrrolidine-1-carbonyl)-3-pyridyl]-3H-1-benzazepine-4,8-dicarboxamide] | > 100000 nM | 14 nM
30 | CCCN(CCC)C(=O)C1=Cc2ccc(C(=O)Nc3cccc(C(=O)N4CCCC4)c3)cc2N=C(N)C1 [Example 15, 2-Amino-N4,N4-dipropyl-N8-[3-(pyrrolidine-1-carbonyl)phenyl]-3H-1-benzazepine-4,8-dicarboxamide] | > 100000 nM | 2 nM
31 | CCCN(CCC)C(=O)C1=Cc2ccc(C(=O)Nc3cccc(CCN)c3)cc2N=C(N)C1 [Example 17, 2-Amino-N8-[3-(2-aminoethyl)phenyl]-N4,N4-dipropyl-3H-1-benzazepine-4,8-dicarboxamide] | > 100000 nM | 6 nM
32 | CCCN(CCC)C(=O)C1=Cc2ccc(C(=O)Nc3cccc(CC)c3)cc2N=C(N)C1 [Example 29, 2-Amino-N8-(3-ethylphenyl)-N4,N4-dipropyl-3H-1-benzazepine-4,8-dicarboxamide] | > 100000 nM | 1 nM
33 | CCCN(CCC)C(=O)C1=Cc2ccc(C(=O)Nc3ccc(CCCN)nc3)cc2N=C(N)C1 [Example 75, 2-Amino-N8-[6-(3-aminopropyl)-3-pyridyl]-N4,N4-dipropyl-3H-1-benzazepine-4,8-dicarboxamide] | > 100000 nM | 10 nM
